The target in one data set is T1, PDE4B1 (Homo sapiens, UniProt Q07343).
T1 construct: purchased BPS 60041
Description: Effect of compounds on PDE4B1 activity (IMAP fluorescence polarization kit). Particulars: class symbols. It is filed as biochemical. As for the experimental part: The IMAP Reaction Buffer containing 0.1% BSA (5×) in the kit was diluted into a 1-fold reaction buffer containing 1 mM DTT. 0.12 nM PDE4B1 (BPS, Cat #60041) was added to the 1-fold reaction buffer to form a 2-fold enzyme solution. 10 μL of the 2-fold enzyme solution was added to wells of a 384-well reaction plate. For the negative control well, 10 μL of the 1-fold reaction buffer was used instead of the enzyme solution. Centrifugation at 1000 rpm for 1 minute and incubation at room temperature for 15 minutes were carried out. 0.2 uM FAM-labeled cAMP (FAM-cAMP, Molecular Device, Cat #R7506) was added to the 1-fold reaction buffer to form a 2-fold substrate solution. 10 μL of the 2-fold substrate solution was added to each well of the 384-well reaction plate. Centrifugation at 1000 rpm for 1 minute was carried out. A reaction was carried out at room temperature for 20 minutes. IMAP Progressive Binding Buffer A (5×), IMAP Progressive Binding Buffer B (5×), and IMAP Progressive Binding Reagent (provided by IMAP FP IPP Explorer Kit) were prepared into a reaction stop solution according to the instructions for use. 60 μL of an […] reaction stop solution was added to each well of the 384-well reaction plate to stop the reaction, and the reaction product was centrifuged at 1000 rpm for 1 minute. Incubation at room temperature in the dark for 60 minutes was carried out. The mP values (Ex480/Em535 (s), Em535 (p)) were read by a microplate reader (Envision).
FP was usually represented by mP value. mP value for FP measurement=1000*(S−G*P)/(S+G*P) • S: fluorescence intensity in parallel direction • P: fluorescence intensity in perpendicular direction • G: G factor=1
[formula] • mP(sample): mP of the test compound in a reaction well • mP(negative control): mP in the negative control well • mP(positive control): mP in the positive control well
According to the calculated inhibition rate at each concentration, the IC50 value of each compound was calculated by XLFit excel add-in version 5.4.0.8 software.
Y=Bottom+(Top−Bottom)/(1+(IC50/X)^HillSlope) Fitting formula: […]

A short description of data set [1]: Pharmacokinetic test in beagle dogs. In kind it is in vivo. As for the experimental part: 6.1 Experimental animals: male beagle dogs, about 8-11 kg, 6 beagle dogs/compound, purchased from Beijing Marshall Biotechnology Co., Ltd.
6.2 Experimental method: On the day of the experiment, 18 beagle dogs were randomly grouped according to their body weights. The animals were fasted with water available for 12-14 h one day before administration and fed 4 h after administration. Administration was carried out according to Table 8.
Before and after administration, 1 ml of blood was taken from the jugular vein or limb vein and placed in an EDTAK2 centrifuge tube. Centrifugation was carried out at 5000 rpm at 4° C. for 10 min, and plasma was collected. The blood collection time points for the intravenous group and intragastric group were both 0 min, 5 min, 15 min, 30 min, 1 h, 2 h, 4 h, 6 h, 8 h, 10 h, 12 h, 24 h, 48 h, and 72 h. Before analysis and detection, all the samples were stored at −80° C., and the samples were subjected to quantitative analysis using LC-MS/MS.

Data set [2] can be described thus: Pharmacokinetic test in monkeys. In kind it is in vivo, cynomolgus monkeys. As for the experimental part:
Experimental animals: Male cynomolgus monkeys, 3-5 kg, 3-6 years old, 6 monkeys/compound. Purchased from Suzhou Xishan Biotechnology Inc.
Experimental method: On the day of the experiment, 12 monkeys were randomly grouped according to their body weights. The animals were fasted with water available for 14-18 h one day before administration and fed 4 h after administration.
Before and after administration, 1.0 mL of blood sample was taken from the limb vein and placed in an EDTAK2 centrifuge tube. Centrifugation was carried out at 5000 rpm at 4° C. for 10 min, and plasma was collected. The blood collection time points for the intravenous group were 0 min, 5 min, 15 min, 30 min, 1 h, 2 h, 4 h, 6 h, 8 h, 10 h, 12 h, and 24 h. Before analysis and detection, all the samples were stored at −80° C., and the samples were subjected to quantitative analysis using LC-MS/MS.

Data set [3] is described as follows: Pharmacokinetic test in mice. It is filed as in vivo, ICR mice.
The mark [4] stands for this setting: male, dog, iv, plasma, i.v. (1 mg/kg).
The mark [5] stands for this setting: male, dog, po, plasma, i.g. (5 mg/kg).
Where [6] appears, read: male, cynomolgus monkey, iv, plasma, i.v. (1 mg/kg).
The mark [7] stands for this setting: male, ICR, mouse, iv, plasma, i.v. (5 mg/kg).
The mark [8] stands for this setting: male, ICR, mouse, po, plasma, i.g. (10 mg/kg).

Broadly, the IC50 is the concentration that inhibits the measured activity by half. A low value points to higher potency. The term AUC(0-t) denotes the area under the concentration-time curve up to a stated or last time point. A word on the clearance: it is the rate of elimination divided by the concentration. High values mean efficient removal, low ones inefficient removal. A word on the half-life: it is the time in which the quantity being followed falls by half. A high value points to slow loss.

T1 sequence (Q07343 whole entry): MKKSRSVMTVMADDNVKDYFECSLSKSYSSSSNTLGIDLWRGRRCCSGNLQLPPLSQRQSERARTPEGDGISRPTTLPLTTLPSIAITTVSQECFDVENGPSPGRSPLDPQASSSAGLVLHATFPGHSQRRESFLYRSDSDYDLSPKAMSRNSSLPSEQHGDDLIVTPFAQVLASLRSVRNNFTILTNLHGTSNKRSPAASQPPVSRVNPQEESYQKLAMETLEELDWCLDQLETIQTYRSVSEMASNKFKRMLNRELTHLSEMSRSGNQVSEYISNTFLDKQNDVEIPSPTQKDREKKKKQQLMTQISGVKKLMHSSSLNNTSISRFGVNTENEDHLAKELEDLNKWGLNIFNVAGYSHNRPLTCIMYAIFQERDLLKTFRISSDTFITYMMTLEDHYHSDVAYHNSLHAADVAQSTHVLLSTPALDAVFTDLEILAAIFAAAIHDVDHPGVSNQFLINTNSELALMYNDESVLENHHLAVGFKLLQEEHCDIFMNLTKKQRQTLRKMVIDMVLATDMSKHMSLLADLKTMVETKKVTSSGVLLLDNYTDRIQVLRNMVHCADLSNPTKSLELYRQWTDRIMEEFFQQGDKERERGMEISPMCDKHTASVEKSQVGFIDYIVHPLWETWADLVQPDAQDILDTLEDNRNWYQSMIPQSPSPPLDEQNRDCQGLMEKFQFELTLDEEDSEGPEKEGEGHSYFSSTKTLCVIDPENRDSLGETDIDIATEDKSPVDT

`[O-][S@+]1CCc2nc(N3C[C@H]4CN(c5ccc6c(c5)CC6)C[C@H]4C3)nc(NC3(CO)CCC3)c21` [Compound 31]: the IC50 on PDE4B1 was less than 10 nM. Further, the F in data set [1] (i.g. (5 mg/kg)) is listed as not below 98%; in data set [2] (i.g. (3 mg/kg)), 30.9 ± 13%. For the same compound, the AUC(0-t) in data set [1] (setting [4]) was 7070 ± 3250 ng·h/mL; in data set [1] (setting [5]), 26100 ± 11900 ng·h/mL; in data set [2] (setting [6]), 8550 ± 664 ng·h/mL; in data set [2] (male, cynomolgus monkey, po, plasma, i.g. (3 mg/kg)) it was 7930 ± 3240 ng·h/mL. Besides, the clearance in data set [1] (setting [4]) stood at 2.69 ± 1.7 mL/min/kg; in data set [2] (setting [6]), 1.95 ± 0.15 mL/min/kg. The half-life in data set [1] (setting [4]) is 5.85 ± 0.63 h; in data set [1] (setting [5]), 7.38 ± 1.2 h. Besides, the Vd in data set [1] (male, dog, iv, plasma, i.v. (1 mg/kg), read-out: Vdss) is 0.957 ± 0.37 L/kg; in data set [2] (male, cynomolgus monkey, iv, plasma, i.v. (1 mg/kg), read-out: Vdss), 0.888 ± 0.16 L/kg.

As for `C#Cc1cnc(C2=CCN(c3nc4c(c(NC5(CO)CCC5)n3)[S+]([O-])CC4)CC2)nc1` (stereo not drawn) [Compound 37], the IC50 at PDE4B1 was less than 10 nM. Also, the F in data set [3] (i.g. (10 mg/kg)) is not below 98%. For the same compound, in data set [3] (setting [7]), the AUC(0-t) turned out to be 6000 ± 1090 ng·h/mL, the clearance is 7.03 ± 1.1 mL/min/kg and the half-life is 3.34 ± 0.3 h. For the same compound, in data set [3] (male, ICR, mouse, iv, plasma, i.v. (5 mg/kg), read-out: Vdss), the Vd worked out at 1.3 ± 0.086 L/kg. In data set [3] (setting [8]), this compound gave an exposure AUC(0-t) of 26900 ± 3910 ng·h/mL and a half-life of 4.3 ± 0.69 h.

For the origin of these results see patent US20250326765A1, “PDE4B INHIBITOR AND USE THEREOF” (XIZANG HAISCO PHARMACEUTICAL CO., LTD., priority 2022, published 2025).
